From patent US9540289B2, “Chelated compositions and methods of making and using the same” (Scott G. Williams, LLC, priority 2010, dated 2017)

Assay: Titration of 1% w/w solution with 0.5 M NaOH until precipitate forms
Type: physicochemical
Procedure: The finished material was tested by titration with 0.5 M NaOH. A 1% w/w solution was made of the material by placing 1.0042 g in a 100 mL of deionized water. 0.5 M NaOH was then titrated into this solution. The material absorbed 23.8 mL of the 0.5 M NaOH while the solution pH rose from about 2 to about 10.2, whereupon a precipitate formed.

0.5 M NaOH absorbed until a precipitate formed (1% w/w solution in 100 mL deionized water, titrated with 0.5 M NaOH): 5.8 mL
solution pH at which a precipitate formed (1% w/w solution titrated with 0.5 M NaOH): above 10.2
Substance: zinc EDTA chelate [pure zinc EDTA chelate]
